For orientation: IC50 means the point on the concentration scale where inhibition reaches its midpoint. A low value points to inhibition by little substance. In general, AUC(0-t) refers to exposure summed from dosing to a finite time, without extrapolation to infinity. In general, Cmax refers to the peak of the concentration-time curve. The term half-life denotes the time needed for the level to fall by half in the phase considered. Higher therefore signals slow loss.

Data on one compound can be found in PMC6960228, “Ethoxysanguinarine, a Novel Direct Activator of AMP-Activated Protein Kinase, Induces Autophagy and Exhibits Therapeutic Potential in Breast Cancer Cells” (Frontiers in Pharmacology, 2020).

The test system of data set [1] is seven BC cell lines. The data set is described as follows: MTT assay, summary over BC cell lines. Type of data set: cell-based. The following applies: Homo sapiens, range over BC cell lines. The source says:
Human BC cell lines MCF-7, MDA-MB-231, DMA-MB-436, SK-BR3, MDA-MB-468, MDA-MB-453, and MDA-MB-435S and non-tumorigenic MCF-10A human mammary epithelial cells were obtained from American Type Culture Collection (ATCC; Manassas, VA, USA). MCF-7, SK-BR3, MDA-MB-231, and MDA-MB-436 cells were maintained in Dulbecco’s modified Eagle’s medium (DMEM; high glucose; Gibco; Thermo Fisher Scientific, Inc., Waltham, MA, USA) supplemented with 10% fetal bovine serum (FBS; HyClone; Logan, UT, USA) and antibiotics and incubated in a humidified atmosphere with 5% CO2 at 37°C. MDA-MB-468, MDA-MB-453, and MDA-MB-435S cells were maintained in Leibovitz’s L-15 (Gibco) supplemented with 10% FBS and antibiotics and incubated in a humidified atmosphere without CO2 at 37°C. MCF-10A cells were maintained in DMEM/F12 medium containing 5% horse serum (HS), insulin ([…]), epidermal growth factor (EGF, 20 ng/mL), choleratoxin ([…]), hydrocortisone ([…]), penicillin (50 U/mL), and streptomycin (50 U/mL), and incubated in a humidified atmosphere with CO2 at 37°C.
Cells were seeded into 96-well plate and pre-cultured for 24 h, then treated with Eth for 24. Cell cytotoxicity was determined by MTT assay. […]
In general terms: Tetrazolium dyes change colour on reduction, which living cells bring about.

A short description of data set [2]: Pharmacokinetic study. The following applies: rat; for MRT last: read-out: MRT0-t. Type of data set: in vivo, Sprague-Dawley rats. As for the experimental part:
Eleven Sprague–Dawley rats (220–250 g, female) were bought from Hunan SJA Laboratory Animal Co., Ltd. (Changsha, China), and maintained and monitored in a specific pathogen-free environment. They were fasted overnight before the experiments. All rat studies were conducted according to protocols approved by the Animal Ethics Committee of Hubei University of Medicine. Six rats were administered with Eth (2 mg/kg) by intravenous injection, and the other five rats were inoculated with Eth (15 mg/kg) by intragastric injection. Blood samples of […] were collected from the orbit at the time points indicated. The plasma concentrations of Eth were determined by […] (Figure S1). The pharmacokinetic parameters were obtained from the pharmacokinetic software DAS 2.0 (Drug and Statistics Version 2.0).
We then tested the pharmacokinetic features of Eth in Sprague-Dawley rats. To do this, six rats were administered Eth (2 mg/kg) by intravenous (i.v.) injection, and another five rats were inoculated with Eth (15 mg/kg) by intragastric (i.g.) injection. the mean plasma concentration-time profiles are shown in Figures 6J, K, and the main pharmacokinetic parameters are summarized in Table 3. […] Therefore, Eth could be a potential therapeutic agent against BC.

The nature of data set [3]: Body weight of xenografted mice. The class given is in vivo, nude mice. As to conditions: i.p. 2 mg/kg four times a week for 4 weeks. As for the experimental part: Female nude immunodeficient mice (nu/nu) (weighing ~16 g, 5-week-old) were purchased from Hunan SJA Laboratory Animal Co., Ltd. (Changsha, China), and maintained under specific pathogen-free conditions. Mice were given free access to sterile water and to a standard diet, and maintained under controlled conditions of temperature (22–24°C), humidity (40–70%), and light (12 h light-dark cycles). The present study was approved by Animal Ethics Committee of Hubei University of Medicine. The mice were subcutaneously injected with human BC MDA-MB-231 cells (5 × 10^6 cells which were suspended in 100 μL DMEM) into the right flank of each mouse. Treatments started when tumors reached a palpable size (0.5 cm in diameter). Mice were randomly divided into the following two groups: control group (vehicle; 0.8% DMSO, 12% cremophor, and 8% ethanol in normal saline; n = 8) and Eth-treated group (intraperitoneal injection of […] Eth; n = 8). The mice were treated 5 times per week for a total of […]. Caliper measurements of the longest perpendicular tumor diameters were performed twice a week to estimate the tumor volume, using the following formula: 4π/3 × (width/2)^2 × (length/2), representing the three-dimensional volume of an ellipse. Animals were sacrificed when tumors reached 1.5 cm or if the mice appeared moribund to prevent unnecessary morbidity to the mice. […]

Setting [4] is: female, Sprague-Dawley, plasma, iv, i.v. (2 mg/kg).
Setting [5] is: female, Sprague-Dawley, plasma, po, i.g. (15 mg/kg).

SMILES strings stand for the structures. Like-named read-outs stand apart in the source and are kept apart here.

`CCOC1c2c(ccc3c2OCO3)-c2ccc3cc4c(cc3c2N1C)OCO4` (stereo not shown) [Eth, Ethoxysanguinarine]: the IC50 in data set [1] was in the range of 2.63 to 9.15 µM. Besides, in data set [2] (setting [4]), the exposure AUC(0-t) worked out at 3640 ± 1560 ng·h/mL, the Cmax stood at 3580 ± 756 ng/mL, the half-life is 3.54 ± 1.79 h and the MRT last was determined as 2.18 ± 0.462 h. Moreover, the clearance in data set [2] (female, Sprague-Dawley, plasma, iv, i.v. (2 mg/kg), read-out: CLz (converted)) was 9.32 mL/min/kg. Further, in data set [2] (setting [5]), the AUC(0-t) amounted to 3390 ± 592 ng·h/mL, the Cmax turned out to be 498 ± 110 ng/mL, the half-life was 4.05 ± 1.58 h and the MRT last was 7.03 ± 1.01 h. Also, the Tmax in data set [2] (female, Sprague-Dawley, plasma, iv, 2 mg/kg, i.v. (2 mg/kg), read-out: Tmax) is 0.083 h. Besides, the Tmax in data set [2] (female, Sprague-Dawley, plasma, iv, 2 mg/kg, i.v. (2 mg/kg), read-out: time of peak plasma concentration (converted)) is 0.033 h. Further, the Tmax in data set [2] (female, Sprague-Dawley, plasma, po, 15 mg/kg, i.g. (15 mg/kg), read-out: Tmax) amounted to 2 h. In data set [2] (i.g. (15 mg/kg)), this compound gave a BA of 12.43% and a CLz of 73.63 ± 14.9 mL/min/kg. For the same compound, the “body weight of the mice” value in data set [3] is “did not significantly reduce the body weight”.
